Test systems include 786-0 renal; A549 NSCLC; ACHN renal; DU-145 prostate; HCC-2998 colon; HCT-116 colon; HS 578T breast; M14 melanoma; NCI-H226 lung; NCI-H460 lung; NCI/ADR-RES ovarian; SF-539 CNS; SNB-19 CNS; SR leukemia; UACC-62 melanoma; UO-31 renal; HOP-62 NSCLC; HT29 colon; SK-OV-3 ovarian.
Common to all, as to assay: inhibition of tumour cell growth, NCI panel, 48 h

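Five concentrations, 48 hours, 96-well plates. TGI is the concentration that stops growth completely.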

With `Cc1ccc(NC(=O)c2cc(S(=O)(=O)N3CCNNC3=O)c(S)cc2Cl)cc1`, the TGI in the experiment on 786-0 renal, with A549 NSCLC, in the experiment on ACHN renal, in the experiment with DU-145 prostate, with HCC-2998 colon and with HCT-116 colon was more than 100 µM in each case. The TGI in the experiment with HS 578T breast, in the experiment with M14 melanoma, in the experiment on NCI-H226 lung, with NCI-H460 lung, with NCI/ADR-RES ovarian and in the experiment on SF-539 CNS was more than 100 µM in each case. Moreover, the TGI with SNB-19 CNS, in the experiment with SR leukemia, with UACC-62 melanoma and in the experiment on UO-31 renal was more than 100 µM each time.

In the case of `COC(=O)C1CCCCCCCCCCC12SCCCS2` (configuration not stated), the TGI was 28.5 µM in the experiment on 786-0 renal; 36.7 µM in the experiment on A549 NSCLC; 40.2 µM with ACHN renal; 39.2 µM in the experiment with DU-145 prostate; 61 µM in the experiment with HCC-2998 colon; 30.2 µM with HCT-116 colon. The TGI in the experiment on HOP-62 NSCLC was 41.2 µM; in the experiment on HS 578T breast it was 90.5 µM; in the experiment on HT29 colon, 91.5 µM; with M14 melanoma, 31 µM; in the experiment on NCI-H226 lung, 42.8 µM; in the experiment with NCI-H460 lung, more than 100 µM. In addition, the TGI in the experiment on NCI/ADR-RES ovarian is 43.1 µM; in the experiment on SF-539 CNS, 47.4 µM; in the experiment with SK-OV-3 ovarian, more than 100 µM; in the experiment with SNB-19 CNS it was 83.2 µM; with SR leukemia, 34.9 µM; in the experiment with UACC-62 melanoma, 59.4 µM. The compound further came in with a TGI in the experiment on UO-31 renal of 38.8 µM.

For `COc1ccc(N=C/C=C/C(=C/COC(C)=O)OC(C)=O)cc1`, the TGI with 786-0 renal was 90 µM; in the experiment on A549 NSCLC, more than 100 µM; with ACHN renal it was 34.4 µM; in the experiment on DU-145 prostate, more than 100 µM; with HCC-2998 colon, more than 100 µM; in the experiment with HCT-116 colon, 28.7 µM. The TGI in the experiment with HOP-62 NSCLC was more than 100 µM; in the experiment on HS 578T breast it was more than 100 µM; in the experiment with HT29 colon, 70.6 µM; in the experiment on M14 melanoma it was more than 100 µM; in the experiment with NCI-H226 lung, more than 100 µM; in the experiment on NCI-H460 lung, 98.6 µM. Besides, the TGI in the experiment on NCI/ADR-RES ovarian, with SF-539 CNS, with SK-OV-3 ovarian, with SNB-19 CNS, in the experiment on SR leukemia and in the experiment on UACC-62 melanoma was more than 100 µM each time.

With `Nc1nc(Cl)cc(NCC2(CO)CC(O)C2)n1` (configuration not stated), the TGI with 786-0 renal, with A549 NSCLC, in the experiment on ACHN renal, with DU-145 prostate, with HCC-2998 colon and in the experiment with HCT-116 colon was more than 100 µM each time. Further, the TGI in the experiment with HOP-62 NSCLC, with HS 578T breast, in the experiment with HT29 colon, with NCI-H226 lung, in the experiment on NCI-H460 lung and in the experiment on NCI/ADR-RES ovarian was more than 100 µM throughout. The TGI with SF-539 CNS, in the experiment on SK-OV-3 ovarian, with SNB-19 CNS, in the experiment on SR leukemia, in the experiment with UACC-62 melanoma and in the experiment on UO-31 renal was more than 100 µM each time.

As to `O=C1C2=Cc3ccccc3CCN2c2ccc([N+](=O)[O-])cc21`, the TGI in the experiment with 786-0 renal, with A549 NSCLC, in the experiment on ACHN renal, in the experiment with DU-145 prostate, in the experiment on HCC-2998 colon and in the experiment on HCT-116 colon was more than 100 µM throughout. The TGI in the experiment with HOP-62 NSCLC, in the experiment with HS 578T breast, in the experiment with HT29 colon, in the experiment with M14 melanoma, in the experiment with NCI-H226 lung and with NCI-H460 lung was more than 100 µM throughout. In addition, the TGI in the experiment on NCI/ADR-RES ovarian is more than 100 µM; in the experiment with SF-539 CNS, more than 100 µM; in the experiment on SNB-19 CNS, more than 100 µM; in the experiment with SR leukemia, more than 100 µM; in the experiment on UACC-62 melanoma, more than 100 µM; in the experiment on UO-31 renal, 97.7 µM.

As to `O=C1NC(c2ccccc2)C1N(Cc1ccccc1)Cc1ccccc1` (configuration not stated), the TGI in the experiment on 786-0 renal, in the experiment with ACHN renal, in the experiment on DU-145 prostate, with HCC-2998 colon, in the experiment with HCT-116 colon and in the experiment with HOP-62 NSCLC was more than 100 µM each time. Moreover, the TGI in the experiment with HS 578T breast, in the experiment with HT29 colon, in the experiment on M14 melanoma, in the experiment with NCI-H226 lung, in the experiment on NCI-H460 lung and with NCI/ADR-RES ovarian was more than 100 µM in each case. In addition, the TGI in the experiment on SF-539 CNS, in the experiment with SK-OV-3 ovarian, with SNB-19 CNS, in the experiment with SR leukemia, in the experiment on UACC-62 melanoma and with UO-31 renal was more than 100 µM throughout.

On to `COc1ccc(-n2c(-c3ccccc3)cc(-c3cccs3)c2-c2cccs2)cc1`, for which the TGI with 786-0 renal, in the experiment on A549 NSCLC, in the experiment with ACHN renal, in the experiment with DU-145 prostate, in the experiment with HCC-2998 colon and with HCT-116 colon was more than 100 µM in each case. The TGI in the experiment on HOP-62 NSCLC, with HS 578T breast, in the experiment on HT29 colon, in the experiment with M14 melanoma, with NCI-H226 lung and in the experiment with NCI-H460 lung was more than 100 µM in each case. For the same compound, the TGI with NCI/ADR-RES ovarian, in the experiment with SF-539 CNS, in the experiment with SK-OV-3 ovarian, with SR leukemia, in the experiment on UACC-62 melanoma and in the experiment with UO-31 renal was more than 100 µM each time.

Turning to `Cc1oc2nc(N(C)C)n3c(C)nnc3c2c1C`, the TGI in the experiment with 786-0 renal, in the experiment with A549 NSCLC, in the experiment with ACHN renal, in the experiment with DU-145 prostate, in the experiment on HCC-2998 colon and with HCT-116 colon was more than 100 µM in each case. Further, the TGI with HS 578T breast, with HT29 colon, in the experiment with M14 melanoma, in the experiment on NCI-H226 lung, with NCI/ADR-RES ovarian and in the experiment with SF-539 CNS was more than 100 µM in each case. The TGI in the experiment with SK-OV-3 ovarian, with SNB-19 CNS, with SR leukemia, in the experiment on UACC-62 melanoma and with UO-31 renal was more than 100 µM throughout.
